Data from PubChem BioAssay (NCI).
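The compound was tested at five concentrations on cells cultured in 96-well plates, with a 48-hour exposure period. Abbreviation: GI50, concentration required for 50% inhibition of growth. TGI: total growth inhibition.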

Legend:
Assay in all cases: inhibition of tumour cell growth, NCI panel, 48 h
UO-31 renal = tested on: UO-31 renal
NCI/ADR-RES ovarian = tested on: NCI/ADR-RES ovarian
MDA-MB-468 breast = tested on: MDA-MB-468 breast
786-0 renal = tested on: 786-0 renal
IGROV1 ovarian = tested on: IGROV1 ovarian
U251 CNS = tested on: U251 CNS
OVCAR-4 ovarian = tested on: OVCAR-4 ovarian
TK-10 renal = tested on: TK-10 renal
HOP-92 NSCLC = tested on: HOP-92 NSCLC
DU-145 prostate = tested on: DU-145 prostate
HS 578T breast = tested on: HS 578T breast
LOX IMVI melanoma = tested on: LOX IMVI melanoma
SK-MEL-5 melanoma = tested on: SK-MEL-5 melanoma
MALME-3M melanoma = tested on: MALME-3M melanoma
OVCAR-3 ovarian = tested on: OVCAR-3 ovarian
SK-MEL-28 melanoma = tested on: SK-MEL-28 melanoma
SNB-75 CNS = tested on: SNB-75 CNS
MDA-MB-435 = tested on: MDA-MB-435
RXF 393 renal = tested on: RXF 393 renal
SN12C renal = tested on: SN12C renal
SK-MEL-2 melanoma = tested on: SK-MEL-2 melanoma
ACHN renal = tested on: ACHN renal
SF-268 CNS = tested on: SF-268 CNS
COLO 205 colon = tested on: COLO 205 colon
SK-OV-3 ovarian = tested on: SK-OV-3 ovarian
CAKI-1 renal = tested on: CAKI-1 renal
SF-295 CNS = tested on: SF-295 CNS
A498 renal = tested on: A498 renal
HOP-62 NSCLC = tested on: HOP-62 NSCLC
HT29 colon = tested on: HT29 colon
HCC-2998 colon = tested on: HCC-2998 colon
HCT-15 colon = tested on: HCT-15 colon
K-562 leukemia = tested on: K-562 leukemia
NCI-H23 lung = tested on: NCI-H23 lung
SF-539 CNS = tested on: SF-539 CNS
HL-60(TB) leukemia = tested on: HL-60(TB) leukemia
A549 NSCLC = tested on: A549 NSCLC
RPMI-8226 leukemia = tested on: RPMI-8226 leukemia
CCRF-CEM leukemia = tested on: CCRF-CEM leukemia
MDA-MB-231 breast = tested on: MDA-MB-231 breast
MOLT-4 leukemia = tested on: MOLT-4 leukemia
NCI-H460 lung = tested on: NCI-H460 lung
EKVX NSCLC = tested on: EKVX NSCLC
BT-549 breast = tested on: BT-549 breast
SNB-19 CNS = tested on: SNB-19 CNS
OVCAR-8 ovarian = tested on: OVCAR-8 ovarian
KM12 colon = tested on: KM12 colon
T-47D breast = tested on: T-47D breast
UACC-257 melanoma = tested on: UACC-257 melanoma
NCI-H522 lung = tested on: NCI-H522 lung
MCF7 breast = tested on: MCF7 breast
HCT-116 colon = tested on: HCT-116 colon
UACC-62 melanoma = tested on: UACC-62 melanoma
M14 melanoma = tested on: M14 melanoma
PC-3 prostate = tested on: PC-3 prostate
OVCAR-5 ovarian = tested on: OVCAR-5 ovarian
NCI-H226 lung = tested on: NCI-H226 lung
SW-620 colon = tested on: SW-620 colon

## Cc1nc(Nc2ccccn2)sc1C(=O)CC(SCC(=O)Nc1ccc(Cl)cc1)c1ccccc1F (stereo unspecified)
UO-31 renal
  GI50: 3.44 µM
  TGI: 16.4 µM
NCI/ADR-RES ovarian
  GI50: 1810 nM
  TGI: 5.44 µM
MDA-MB-468 breast
  GI50: 1580 nM
  TGI: 5.05 µM
786-0 renal
  GI50: 3.74 µM
  TGI: 14.3 µM
IGROV1 ovarian
  GI50: 3.87 µM
  TGI: 20.7 µM
U251 CNS
  GI50: 2220 nM
  TGI: 6.41 µM
OVCAR-4 ovarian
  GI50: 11.4 µM
  TGI: 71.4 µM
TK-10 renal
  GI50: 4.79 µM
  TGI: 16.8 µM
HOP-92 NSCLC
  GI50: 4.94 µM
  TGI: 25.9 µM
DU-145 prostate
  GI50: 3.34 µM
  TGI: 13.2 µM
HS 578T breast
  GI50: 2140 nM
  TGI: 6.17 µM
LOX IMVI melanoma
  GI50: 2310 nM
  TGI: 10.3 µM
SK-MEL-5 melanoma
  GI50: 2200 nM
  TGI: 5.86 µM
MALME-3M melanoma
  GI50: 4.91 µM
  TGI: 19.6 µM
OVCAR-3 ovarian
  GI50: 1530 nM
  TGI: 11.6 µM
SK-MEL-28 melanoma
  GI50: 5.45 µM
  TGI: 19.7 µM
SNB-75 CNS
  GI50: 1420 nM
  TGI: 6.22 µM
MDA-MB-435
  GI50: 1020 nM
  TGI: 2780 nM
RXF 393 renal
  GI50: 2320 nM
  TGI: 8.73 µM
SN12C renal
  GI50: 2720 nM
  TGI: 10.5 µM
SK-MEL-2 melanoma
  GI50: 2030 nM
  TGI: 4.74 µM
ACHN renal
  GI50: 3.9 µM
  TGI: 14.8 µM
SF-268 CNS
  GI50: 3.74 µM
  TGI: 17.3 µM
COLO 205 colon
  GI50: 2180 nM
  TGI: 4.67 µM
SK-OV-3 ovarian
  GI50: 3.63 µM
  TGI: 29.2 µM
CAKI-1 renal
  GI50: 2710 nM
  TGI: 16.9 µM
SF-295 CNS
  GI50: 2770 nM
  TGI: 12.3 µM
A498 renal
  GI50: 12.7 µM
  TGI: 35.7 µM
HOP-62 NSCLC
  GI50: 2790 nM
  TGI: 12.3 µM
HT29 colon
  GI50: 2160 nM
  TGI: 5.44 µM
HCC-2998 colon
  GI50: 3.44 µM
  TGI: 13.8 µM
HCT-15 colon
  GI50: 1800 nM
  TGI: 11.2 µM
K-562 leukemia
  GI50: > 100 µM
  TGI: > 100 µM
NCI-H23 lung
  GI50: 3.84 µM
  TGI: 15.7 µM
SF-539 CNS
  GI50: 2020 nM
  TGI: 4.41 µM
HL-60(TB) leukemia
  GI50: > 100 µM
  TGI: > 100 µM
A549 NSCLC
  GI50: 3.15 µM
  TGI: 22.8 µM
RPMI-8226 leukemia
  GI50: 3.33 µM
  TGI: 72.1 µM
CCRF-CEM leukemia
  GI50: 2390 nM
  TGI: > 100 µM
MDA-MB-231 breast
  GI50: 2640 nM
  TGI: 7.86 µM
MOLT-4 leukemia
  GI50: > 100 µM
  TGI: > 100 µM
NCI-H460 lung
  GI50: 2230 nM
  TGI: 5.22 µM
EKVX NSCLC
  GI50: 3.15 µM
  TGI: 13.4 µM
BT-549 breast
  GI50: 2830 nM
  TGI: 9.85 µM
SNB-19 CNS
  GI50: 3.28 µM
  TGI: 14.4 µM
OVCAR-8 ovarian
  GI50: 2310 nM
  TGI: 5.88 µM
KM12 colon
  GI50: 1390 nM
  TGI: 8.67 µM
T-47D breast
  GI50: 2280 nM
  TGI: 9.79 µM
UACC-257 melanoma
  GI50: 4.72 µM
  TGI: 19.4 µM
NCI-H522 lung
  GI50: 2220 nM
  TGI: 6.4 µM
MCF7 breast
  GI50: 1250 nM
  TGI: 13.8 µM
HCT-116 colon
  GI50: 2200 nM
  TGI: 6.46 µM
UACC-62 melanoma
  GI50: 2240 nM
  TGI: 10.3 µM
M14 melanoma
  GI50: 1690 nM
  TGI: 4.02 µM
PC-3 prostate
  GI50: 4.04 µM
  TGI: 93.6 µM
OVCAR-5 ovarian
  GI50: 2600 nM
  TGI: 6.89 µM
NCI-H226 lung
  GI50: 7.91 µM
  TGI: 31.2 µM
SW-620 colon
  GI50: 2560 nM
  TGI: 11.7 µM
